{"source": "patent US20260125357A1", "about": "“LACTATE ENHANCING COMPOUNDS AND USES THEREOF” (GLIAPHARM SA, priority 2022, published 2026)", "key": {"[1]": {"tested_on": "human iPSC-derived astrocytes", "assay": "Release of lactate from human iPSC-derived astrocytes", "type": "cell-based", "conditions": "treated for 1.5 hours", "description": "Secretion of L-lactate was measured in the extracellular medium of 96-well plated astrocytes after 90 min stimulation (at 37° C., in 5% CO2/95% air conditions) with Vehicle (DMSO), the compounds of the invention (100 nM to 100 μM) or positive control. […] Stimulation medium was composed of D5030 medium complemented with 5 mM D-glucose and 44 mM sodium bicarbonate, pH 7.2. To quantify lactate concentrations in the extracellular medium, 200 μl of a 0.2M Glycine-semicarbazide buffer (pH 10) containing 3 mM NAD and 14 U/ml LDH was added to each well of a 96-well plate containing 30 μl aliquots of extracellular medium. Samples were incubated at 37° C. for 1 h. Fluorescence intensity (340 nm excitation/450 nm emission), which represents the amount of NADH produced, was measured, and lactate concentration values were determined relative to a standard curve of L-lactate concentrations.\nHuman iPSC-derived astrocytes were purchased from NCardia (NCyte Astrocytes) and were plated at a density of ˜10′000 cells/cm^2 in 96-well or 12-well plates, according to the manufacturer's instructions and using the recommended media. Experiments were performed at 7 days in vitro. Cells were treated for 1.5 hours with compound (2). Uptake of 2-DG and release of lactate were quantified as described previously."}, "C57Bl/6J wild-type mice": {"tested_on": "C57Bl/6J wild-type mice", "assay": "Lactate and glucose biosensors, cerebral extracellular levels in freely moving mice", "type": "in vivo, mouse", "conditions": "per os, doses 10 to 30 mg/kg, 3 hours, AUC ratio vs vehicle", "description": "All experiments were carried out in strict accordance with the Swiss Federal Guidelines for Animal Experimentation and were approved by the Cantonal Veterinary Office for Animal Experimentation (Canton of Geneva, Switzerland). Adult male C57Bl/6J wild-type mice weighting 18-28 g (8 to 12 weeks of age) were used (Charles River Laboratories). Animals were housed in groups of 3-5 in polypropylene cages (30×40×15 cm) with wire mesh top in a temperature (22±2° C.) and humidity (55±15%) controlled environment on a 12-hour light cycle (07.00-19.00 h lights on), except after surgeries when animal were housed individually. The samples (Vehicle or compounds of the invention) were administered per os (gavage) in a solution made of water supplemented with 0.4% hydroxypropyl methylcellulose (HPMC) Methocel 4 KM (w/v) and 0.25% Tween-20 (v/v), as previously described (Thackaberry et al., 2010, Toxicol Sci., 117(2):485-92). Concentrations of the compounds tested ranged from 3 to 30 mg/kg.\nCerebral extracellular levels of L-lactate and D-glucose were monitored in vivo using lactate and glucose biosensors (Pinnacle Technology), respectively, according to the manufacturer's instructions. Cannulae were surgically implanted in the medial prefrontal cortices (coordinates: −1.0 mm (to bregma), lateral+/−1.0 mm (to mideline), ventral −1.0 mm (to dura))) of isoflurane-anesthetized mice 5 to 7 days prior experiment. After surgery, mice were monitored closely and received analgesic treatment for at least 4 days. After mice had fully recovered from surgery, compounds of the invention of vehicle were administered per os as previously described and cerebral levels of extracellular lactate and glucose were dynamically recorded for 6 hours using biosensors. Mice were administered vehicle alone first, followed 3 hours later by vehicle or Compounds of the Invention. Concentrations of cerebral extracellular lactate and glucose were calculated from the biosensor electric signals using post-calibration values. […] Area Under the Curve (AUC) of lactate and glucose concentration curves were calculated using Graphad Prism and the ratio of AUC after drug over Vehicle administration was calculated. Extracellular concentrations of lactate and glucose were measured in real time in freely moving animals for 3 hours after administration of Vehicle or compounds (1) to (4) at doses ranging from 10 to 30 mg/kg (FIG. 5)."}, "[2]": {"tested_on": "mice injected with streptozotocin", "assay": "Inhibitory Avoidance in streptozotocin ICV injection model of Alzheimer's disease", "type": "in vivo, mouse", "conditions": "1 day after training, vs Veh", "description": "Craniotomies are performed on isoflurane-anesthetized mice for injections of Veh or streptozotocin in cerebral ventricles (coordinates: −0.5 mm (to bregma), lateral+/−1.0 mm (to midline), ventral −2.2 mm (to dura)) (Kelliny S. et al., Molecular Neurobiology, 2021). A solution composed of Veh (0.9% NaCl) or streptozotocin (5 mg/kg) prepared in 1 μl artificial cerebrospinal fluid solution (aCSF, 20 mM citrate buffer, pH 4.2) is injected in both cerebral ventricles using Hamilton micro syringe at a constant speed of 100-200 nl/min. After injection, skin of the skull is sutured, and mice is monitored closely and receives analgesic treatment for at least 4 days. After mice had fully recovered from surgery, memory tests including Morris Water Maze (MWM), Inhibitory Avoidance (IA) and Novel Object Recognition (NOR), as described below, are performed. […]\nInhibitory avoidance (IA) test is a well-established memory paradigm in rodents that measures contextual memory associated with a mild electrical footshock in a specific context (the dark compartment of the IA chamber). […] Memory retention was measured at 24 h after training by placing the mouse back into the lit compartment and recording its latency (in seconds) to enter the dark compartment. […]"}}}
{"smiles": "COc1cc2ccnc(Nc3ccc(S(C)(=O)=O)cc3)c2cc1OC", "note": "[Compound 2, 6,7-dimethoxy-N-(4-methylsulfonylphenyl)isoquinolin-1-amine]", "values": [{"measurement": "release of lactate", "setting": "[1]", "value": "increased"}, {"measurement": "extracellular glucose levels in the brain", "setting": "C57Bl/6J wild-type mice", "value": "significantly increases extracellular glucose levels"}, {"measurement": "extracellular lactate levels in the brain", "setting": "C57Bl/6J wild-type mice", "value": "significantly increases extracellular lactate levels"}, {"measurement": "memory in the Inhibitory Avoidance", "setting": "[2]; 10 mg/kg", "value": "significantly higher"}, {"measurement": "memory in the Inhibitory Avoidance", "setting": "[2]; 30 mg/kg", "value": "significantly higher"}]}
